Results published in ChEMBL document CHEMBL3351426, “Development of new estradiol-cationic lipid hybrids: ten-carbon twin chain cationic lipid is a more suitable partner for estradiol to elicit better anticancer activity” (Eur J Med Chem, 2014).
Values belong to the compound of their own block, whether it stands above or below them. Active and inactive are the calls of the source. The rule behind the calls is not given here.

What was measured:
[1] = Antiproliferative activity human MIAPaCa2 cells after 2 days by MTT assay; format: functional, cell-based; conditions: MIA PaCa-2, 48 h
[2] = Antiproliferative activity mouse NIH/3T3 cells after 2 days by MTT assay; format: cell-based; conditions: NIH3T3, 48 h
MCF7 [3] = experiment: Antiproliferative activity human ER-positive MCF7 cells after 2 days by MTT assay; format: functional, cell-based; conditions: MCF7, 48 h
MDA-MB-231 [4] = experiment: Antiproliferative activity human ER-negative MDA-MB-231 cells after 2 days by MTT assay; format: functional, cell-based; conditions: MDA-MB-231, 48 h
CHO [5] = experiment: Antiproliferative activity against CHO cells after 2 days by MTT assay; format: cell-based; conditions: Cricetulus griseus, 48 h
[6] = Antiproliferative activity mouse B16F10 cells after 2 days by MTT assay; format: functional, cell-based; conditions: B16-F10, 48 h
B16-F10 [7] = experiment: Antitumor activity against mouse B16F10 cells inoculated in C57BL6J mouse assessed as tumor regression at 9.15 mg/kg, ip for 9 days; format: functional, organism-based; set-up: dose 9.15 mg/kg
B16-F10 [8] = experiment: Induction of apoptosis in mouse B16F10 cells assessed as necrotic cells at 5 uM after 24 hrs by FITC-annexin V/PI staining based flow cytometry (RVB = 5.12%); format: functional
[9] = Cell cycle arrest in mouse B16F10 cells assessed as accumulation at sub-G0 phase at 5 to 10 uM after 24 hrs by PI staining based flow cytometry; format: functional; conditions: B16-F10
MCF7 [10] = experiment: Cell cycle arrest in human ER-positive MCF7 cells assessed as accumulation at sub-G0 phase at 5 to 10 uM after 24 hrs by PI staining based flow cytometry; format: functional
B16-F10 [11] = experiment: Antitumor activity against mouse B16F10 cells expressing ER inoculated in C57BL6J mouse assessed as tumor regression at 10 mg/kg, ip for 9 days; format: functional, organism-based; set-up: dose 10 mg/kg
MDA-MB-231 [12] = experiment: Induction of apoptosis in human ER-negative MDA-MB-231 cells assessed as early apoptotic cells at 5 uM after 24 hrs by FITC-annexin V/PI staining based flow cytometry (RVB = 1.15%); format: functional
B16-F10 [13] = experiment: Induction of apoptosis in mouse B16F10 cells assessed as early apoptotic cells at 5 uM after 24 hrs by FITC-annexin V/PI staining based flow cytometry (RVB = 0.36%); format: functional
B16-F10 [14] = experiment: Induction of apoptosis in mouse B16F10 cells assessed as late apoptotic cells at 5 uM after 24 hrs by FITC-annexin V/PI staining based flow cytometry (RVB = 4.94%); format: functional
MDA-MB-231 [15] = experiment: Induction of apoptosis in human ER-negative MDA-MB-231 cells assessed as necrotic cells at 5 uM after 24 hrs by FITC-annexin V/PI staining based flow cytometry (RVB = 2.21%); format: functional
B16-F10 [16] = experiment: Antitumor activity against mouse B16F10 cells expressing ER inoculated in C57BL6J mouse assessed as tumor regression at 10 mg/kg, ip for 9 days in presence of estradiol; format: functional, organism-based; set-up: dose 10 mg/kg
B16-F10 [17] = experiment: Antitumor activity against mouse B16F10 cells inoculated in C57BL6J mouse assessed as tumor regression at 10 mg/kg, ip for 9 days; format: functional, organism-based; set-up: dose 10 mg/kg
RAW264.7 [18] = experiment: Induction of apoptosis in mouse RAW264.7 cells assessed as early apoptotic cells at 5 uM after 24 hrs by FITC-annexin V/PI staining based flow cytometry (RVB = 0.69%); format: cell-based; conditions: raw264.7, 24 h
MDA-MB-231 [19] = experiment: Induction of apoptosis in human ER-negative MDA-MB-231 cells assessed as viable cells at 5 uM after 24 hrs by FITC-annexin V/PI staining based flow cytometry (RVB =95.66%); format: functional; conditions: MDA-MB-231, 24 h, read-out: Activity
B16-F10 [20] = experiment: Induction of apoptosis in mouse B16F10 cells assessed as viable cells at 5 uM after 24 hrs by FITC-annexin V/PI staining based flow cytometry (RVB = 89.58%); format: functional; conditions: B16-F10, 24 h, read-out: Activity
RAW264.7 [21] = experiment: Induction of apoptosis in mouse RAW264.7 cells assessed as late apoptotic cells at 5 uM after 24 hrs by FITC-annexin V/PI staining based flow cytometry (RVB = 0.51%); format: cell-based; conditions: raw264.7, 24 h
MCF7 [22] = experiment: Induction of apoptosis in human ER-positive MCF7 cells assessed as late apoptotic cells at 5 uM after 24 hrs by FITC-annexin V/PI staining based flow cytometry (RVB = 3.68%); format: functional
[23] = Induction of apoptosis in CHO cells assessed as viable cells at 5 uM after 24 hrs by FITC-annexin V/PI staining based flow cytometry (RVB = 99.21%); format: cell-based, Cricetulus griseus; conditions: chinese hamster, read-out: Activity
[24] = Cell cycle arrest in mouse B16F10 cells assessed as reduction in accumulation at G0-G1 phase 5 to 10 uM after 24 hrs by PI staining based flow cytometry; format: functional; conditions: B16-F10
CHO [25] = experiment: Induction of apoptosis in CHO cells assessed as early apoptotic cells at 5 uM after 24 hrs by FITC-annexin V/PI staining based flow cytometry (RVB = 0.00%); format: cell-based, Cricetulus griseus; conditions: chinese hamster
MCF7 [26] = experiment: Induction of apoptosis in human ER-positive MCF7 cells assessed as viable cells at 5 uM after 24 hrs by FITC-annexin V/PI staining based flow cytometry (RVB = 92.22%); format: functional; conditions: MCF7, 24 h, read-out: Activity
[27] = Induction of apoptosis in mouse RAW264.7 cells assessed as viable cells at 5 uM after 24 hrs by FITC-annexin V/PI staining based flow cytometry (RVB = 98.51%); format: cell-based; conditions: read-out: Activity
MCF7 [28] = experiment: Induction of apoptosis in human ER-positive MCF7 cells assessed as necrotic cells at 5 uM after 24 hrs by FITC-annexin V/PI staining based flow cytometry (RVB = 3.24%); format: functional
RAW264.7 [29] = experiment: Induction of apoptosis in mouse RAW264.7 cells assessed as necrotic cells at 5 uM after 24 hrs by FITC-annexin V/PI staining based flow cytometry (RVB = 0.29%); format: cell-based; conditions: raw264.7, 24 h
CHO [30] = experiment: Induction of apoptosis in CHO cells assessed as late apoptotic cells at 5 uM after 24 hrs by FITC-annexin V/PI staining based flow cytometry (RVB = 0.00%); format: cell-based, Cricetulus griseus; conditions: chinese hamster
MDA-MB-231 [31] = experiment: Induction of apoptosis in human ER-negative MDA-MB-231 cells assessed as late apoptotic cells at 5 uM after 24 hrs by FITC-annexin V/PI staining based flow cytometry (RVB = 0.99%); format: functional
MCF7 [32] = experiment: Cell cycle arrest in human ER-positive MCF7 cells assessed as reduction in accumulation at G0-G1 phase 5 to 10 uM after 24 hrs by PI staining based flow cytometry; format: functional
MCF7 [33] = experiment: Induction of apoptosis in human ER-positive MCF7 cells assessed as early apoptotic cells at 5 uM after 24 hrs by FITC-annexin V/PI staining based flow cytometry (RVB = 0.86%); format: functional
CHO [34] = experiment: Induction of apoptosis in CHO cells assessed as necrotic cells at 5 uM after 24 hrs by FITC-annexin V/PI staining based flow cytometry (RVB = 0.79%); format: cell-based, Cricetulus griseus; conditions: chinese hamster

SMILES: CCCCCCCCCCCC[N+](C)(CCCCCCCCCCCC)CCC[C@]1(O)CC[C@H]2[C@@H]3CCc4cc(O)ccc4[C@H]3CC[C@@]21C
IC50 [1]: 7.36 µM
IC50 [2]: 85.4 µM
IC50 (MCF7 [3]): 6.23 µM
IC50 (MDA-MB-231 [4]): 6.02 µM
IC50 (CHO [5]): 90.8 µM
IC50 [6]: 5.79 µM

SMILES: CC/C(=C(\c1ccccc1)c1ccc(OCCN(C)C)cc1)c1ccccc1 [TAMOXIFEN]
IC50 [1]: 33.1 µM
IC50 [2]: > 100 µM
IC50 (MCF7 [3]): 4.67 µM
IC50 (MDA-MB-231 [4]): 39 µM
IC50 (CHO [5]): > 100 µM
IC50 [6]: 64.9 µM

SMILES: CCCCCCCCCCCCCC[N+](C)(CCCCCCCCCCCCCC)CCC[C@]1(O)CC[C@H]2[C@@H]3CCc4cc(O)ccc4[C@H]3CC[C@@]21C
IC50 [1]: 42.5 µM
IC50 [2]: 80.3 µM
IC50 (MCF7 [3]): 17.4 µM
IC50 (MDA-MB-231 [4]): 38.7 µM
IC50 (CHO [5]): > 100 µM
IC50 [6]: 32.3 µM

SMILES: CCCCCCCC[N+](C)(CCCCCCCC)CCC[C@]1(O)CC[C@H]2[C@@H]3CCc4cc(O)ccc4[C@H]3CC[C@@]21C
IC50 [1]: 6.83 µM
IC50 [2]: 51 µM
IC50 (MCF7 [3]): 5.34 µM
IC50 (MDA-MB-231 [4]): 5.62 µM
inhibition (B16-F10 [7]): Active
IC50 (CHO [5]): 45.3 µM
IC50 [6]: 6.48 µM

SMILES: C[C@]12CC[C@@H]3c4ccc(O)cc4CC[C@H]3[C@@H]1CC[C@@H]2O [ESTRADIOL]
IC50 [1]: 42.9 µM
IC50 [2]: > 100 µM
IC50 (MCF7 [3]): 27.4 µM
IC50 (MDA-MB-231 [4]): 33.5 µM
IC50 (CHO [5]): > 100 µM
IC50 [6]: 39.8 µM

More lines, in order of falling IC50 (MCF7 [3]), values ahead:

IC50 (MCF7 [3]): 7.85 µM
IC50 (MDA-MB-231 [4]): 6.78 µM
SMILES: CCCCCC[N+](C)(CCCCCC)CCC[C@]1(O)CC[C@H]2[C@@H]3CCc4cc(O)ccc4[C@H]3CC[C@@]21C
IC50 [1]: 8.51 µM
IC50 [2]: 45.8 µM
IC50 (CHO [5]): 60.4 µM
IC50 [6]: 6.56 µM

IC50 (MCF7 [3]): 1.36 µM
IC50 (MDA-MB-231 [4]): 1.14 µM
SMILES: CCCCCCCCCC[N+](C)(CCCCCCCCCC)CCC[C@]1(O)CC[C@H]2[C@@H]3CCc4cc(O)ccc4[C@H]3CC[C@@]21C.[Cl-]
IC50 [1]: 0.46 µM
Activity (B16-F10 [8]): 2.87%
Activity [9]: Active
Activity (MCF7 [10]): Active
inhibition (B16-F10 [11]): Active
IC50 [2]: 47.7 µM
Activity (MDA-MB-231 [12]): 21.65%
Activity (B16-F10 [13]): 2.53%
Activity (B16-F10 [14]): 67.86%
Activity (MDA-MB-231 [15]): 3.39%
inhibition (B16-F10 [16]): inactive
inhibition (B16-F10 [17]): Active
Activity (RAW264.7 [18]): 0.55%
viability at 5 µM (MDA-MB-231 [19]): 24.3%
viability at 5 µM (B16-F10 [20]): 26.7%
Activity (RAW264.7 [21]): 0.27%
Activity (MCF7 [22]): 45.94%
viability at 24 h, 5 µM [23]: 98.3%
Activity [24]: Active
Activity (CHO [25]): 0.56%
viability at 5 µM (MCF7 [26]): 51%
viability at 24 h, 5 µM [27]: 99.1%
Activity (MCF7 [28]): 1.4%
Activity (RAW264.7 [29]): 0.1%
Activity (CHO [30]): 0.23%
Activity (MDA-MB-231 [31]): 50.63%
IC50 (CHO [5]): 81.7 µM
Activity (MCF7 [32]): Active
Activity (MCF7 [33]): 1.62%
IC50 [6]: 0.5 µM
Activity (CHO [34]): 0.86%
